Earlier results, collected in US8940311B2, “In situ controlled release drug delivery system” (priority 2004, dated 2015).

Legend:
plasma cholinesterase = plasma cholinesterase (Homo sapiens, UniProt P06276); settings: hydrolysis by plasma cholinesterase
Chain of plasma cholinesterase (P06276 29-602): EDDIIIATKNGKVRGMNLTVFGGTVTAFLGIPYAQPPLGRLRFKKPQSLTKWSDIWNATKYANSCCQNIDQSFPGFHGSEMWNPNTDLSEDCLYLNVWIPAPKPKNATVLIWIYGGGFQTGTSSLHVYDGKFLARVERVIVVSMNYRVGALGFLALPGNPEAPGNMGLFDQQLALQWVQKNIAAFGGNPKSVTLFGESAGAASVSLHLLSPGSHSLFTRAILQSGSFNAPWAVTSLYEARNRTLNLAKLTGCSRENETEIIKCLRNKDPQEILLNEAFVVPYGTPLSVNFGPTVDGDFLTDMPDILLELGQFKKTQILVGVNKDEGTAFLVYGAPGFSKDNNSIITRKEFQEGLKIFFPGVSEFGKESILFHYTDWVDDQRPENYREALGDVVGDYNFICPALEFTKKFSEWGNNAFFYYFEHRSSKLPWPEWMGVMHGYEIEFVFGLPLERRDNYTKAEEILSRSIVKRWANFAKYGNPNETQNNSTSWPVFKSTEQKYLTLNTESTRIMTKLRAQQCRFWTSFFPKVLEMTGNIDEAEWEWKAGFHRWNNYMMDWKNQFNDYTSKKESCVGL

order of rate of amide hydrolysis (liver microsomal enzymes) | SMILES | half-life (plasma cholinesterase)
slowest | CCCCN1CCCCC1C(=O)Nc1c(C)cccc1C (stereo not shown) [bupivacaine] | –
– | CCN(CC)CCOC(=O)c1ccc(N)cc1Cl [chloroprocaine] | less than one
fastest | CCCN(CC)C(CC)C(=O)Nc1c(C)cccc1C (stereo not shown) [etidocaine] | –
– | CCN(CC)CCOC(=O)c1ccc(N)cc1 [procaine] | less than one
